The term IC50 denotes the concentration that inhibits the measured activity by half. Low readings indicate higher potency, high ones lower potency.

IC50 data for 31 compounds are collected here from ChEMBL document CHEMBL4334508, “Oleanolic Acid Derivatives as Potential Inhibitors of HIV-1 Protease” (J Nat Prod, 2019).

The target of this assay is Protease (Human immunodeficiency virus 1, UniProt Q9YQ12). Briefly: Inhibition of HIV1 protease expressed in Escherichia coli using Abz-Ala-Arg-Val-Nle-Tyr(NO2)-Glu-Ala-Nle-NH2 peptide as substrate by FRET assay.
Sequence of Protease (Q9YQ12 whole entry): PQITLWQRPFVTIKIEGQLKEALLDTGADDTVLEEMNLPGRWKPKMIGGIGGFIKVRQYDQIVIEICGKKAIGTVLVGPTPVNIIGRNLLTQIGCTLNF
As to `CCCC(=O)O[C@H]1CC[C@]2(C)[C@H]3CC=C4[C@@H]5CC(C)(C)CC[C@]5(C(=O)NCCCCCCCCCCC(=O)N[C@H](C(=O)O)C(C)C)CC[C@@]4(C)[C@]3(C)CC[C@H]2C1(C)C`, the IC50 was greater than 50 µM.

In turn, `CCCC(=O)O[C@H]1CC[C@]2(C)[C@H]3CC=C4[C@@H]5CC(C)(C)CC[C@]5(C(=O)NCCCC(=O)NCC(=O)O)CC[C@@]4(C)[C@]3(C)CC[C@H]2C1(C)C` registered an IC50 greater than 50 µM. In the case of `CC(C)[C@H](NC(=O)CCCCCCCCCCNC(=O)[C@]12CCC(C)(C)C[C@H]1C1=CC[C@@H]3[C@@]4(C)CC[C@H](OC(=O)c5ccccc5C(=O)O)C(C)(C)[C@@H]4CC[C@@]3(C)[C@]1(C)CC2)C(=O)O`, the IC50 was found to be 1.2 µM.

`C[C@H](NC(=O)CCCCCNC(=O)[C@]12CCC(C)(C)C[C@H]1C1=CC[C@@H]3[C@@]4(C)CC[C@H](OC(=O)CC(C)(C)CC(=O)O)C(C)(C)[C@@H]4CC[C@@]3(C)[C@]1(C)CC2)C(=O)O` showed an IC50 of 24.1 µM. On to `CCCCCCCCCCCC(=O)O[C@H]1CC[C@]2(C)[C@H]3CC=C4[C@@H]5CC(C)(C)CC[C@]5(C(=O)NCCCC(=O)NCC(=O)O)CC[C@@]4(C)[C@]3(C)CC[C@H]2C1(C)C`, for which the IC50 is greater than 50 µM. In the case of `CCCCCCCCCCCC(=O)O[C@H]1CC[C@]2(C)[C@H]3CC=C4[C@@H]5CC(C)(C)CC[C@]5(C(=O)NCCCC(=O)N[C@@H](C)C(=O)O)CC[C@@]4(C)[C@]3(C)CC[C@H]2C1(C)C`, the IC50 is greater than 50 µM. The same measure for `CCCCCCCCCCCC(=O)O[C@H]1CC[C@]2(C)[C@H]3CC=C4[C@@H]5CC(C)(C)CC[C@]5(C(=O)NCCCCCCCCCCC(=O)N[C@@H](C)C(=O)O)CC[C@@]4(C)[C@]3(C)CC[C@H]2C1(C)C`: greater than 50 µM. The same measure for `CC(C)[C@H](NC(=O)CCCNC(=O)[C@]12CCC(C)(C)C[C@H]1C1=CC[C@@H]3[C@@]4(C)CC[C@H](OC(=O)CCC(=O)O)C(C)(C)[C@@H]4CC[C@@]3(C)[C@]1(C)CC2)C(=O)O`: 41.5 µM; for `CC1(C)CC[C@]2(C(=O)NCCCCCCCCCCC(=O)O)CC[C@]3(C)C(=CC[C@@H]4[C@@]5(C)CC[C@H](OC(=O)CCC(=O)O)C(C)(C)[C@@H]5CC[C@]43C)[C@@H]2C1`: greater than 50 µM. In turn, `C[C@H](NC(=O)CCCCCCCCCCNC(=O)[C@]12CCC(C)(C)C[C@H]1C1=CC[C@@H]3[C@@]4(C)CC[C@H](OC(=O)CC(C)(C)CC(=O)O)C(C)(C)[C@@H]4CC[C@@]3(C)[C@]1(C)CC2)C(=O)O` yielded an IC50 greater than 50 µM. The same measure for `CCCCCC(=O)O[C@H]1CC[C@]2(C)[C@H]3CC=C4[C@@H]5CC(C)(C)CC[C@]5(C(=O)NCCCC(=O)N[C@@H](C)C(=O)O)CC[C@@]4(C)[C@]3(C)CC[C@H]2C1(C)C`: greater than 50 µM. As for `CC(C)[C@H](NC(=O)CCCCCNC(=O)[C@]12CCC(C)(C)C[C@H]1C1=CC[C@@H]3[C@@]4(C)CC[C@H](OC(=O)CCCC(=O)O)C(C)(C)[C@@H]4CC[C@@]3(C)[C@]1(C)CC2)C(=O)O`, the figure is 17.9 µM; as for `CC(=O)O[C@H]1CC[C@]2(C)[C@H]3CC=C4[C@@H]5CC(C)(C)CC[C@]5(C(=O)NCCCCCC(=O)N[C@H](C(=O)O)C(C)C)CC[C@@]4(C)[C@]3(C)CC[C@H]2C1(C)C`, 30.3 µM. As for `CCCC(=O)O[C@H]1CC[C@]2(C)[C@H]3CC=C4[C@@H]5CC(C)(C)CC[C@]5(C(=O)NCCCC(=O)O)CC[C@@]4(C)[C@]3(C)CC[C@H]2C1(C)C`, the figure is greater than 50 µM; as for `CC(=O)O[C@H]1CC[C@]2(C)[C@H]3CC=C4[C@@H]5CC(C)(C)CC[C@]5(C(=O)NCCCC(=O)NCC(=O)O)CC[C@@]4(C)[C@]3(C)CC[C@H]2C1(C)C`, greater than 50 µM; as for `CCC(=O)O[C@H]1CC[C@]2(C)[C@H]3CC=C4[C@@H]5CC(C)(C)CC[C@]5(C(=O)NCCCCCC(=O)N[C@H](C(=O)O)C(C)C)CC[C@@]4(C)[C@]3(C)CC[C@H]2C1(C)C`, greater than 50 µM. The compound `CC1(C)CC[C@]2(C(=O)NCCCCCCCCCCC(=O)O)CC[C@]3(C)C(=CC[C@@H]4[C@@]5(C)CC[C@H](OC(=O)CCCC(=O)O)C(C)(C)[C@@H]5CC[C@]43C)[C@@H]2C1` had an IC50 greater than 50 µM.

`CC(=O)O[C@H]1CC[C@]2(C)[C@H]3CC=C4[C@@H]5CC(C)(C)CC[C@]5(C(=O)NCCCCCCCCCCC(=O)NCC(=O)O)CC[C@@]4(C)[C@]3(C)CC[C@H]2C1(C)C`: the IC50 is greater than 50 µM. Compound `C[C@H](NC(=O)CCCNC(=O)[C@]12CCC(C)(C)C[C@H]1C1=CC[C@@H]3[C@@]4(C)CC[C@H](OC(=O)CC(C)(C)CC(=O)O)C(C)(C)[C@@H]4CC[C@@]3(C)[C@]1(C)CC2)C(=O)O` had an IC50 greater than 50 µM. The same measure for `CC1(C)CC[C@]2(C(=O)NCCCC(=O)NCC(=O)O)CC[C@]3(C)C(=CC[C@@H]4[C@@]5(C)CC[C@H](OC(=O)c6ccccc6)C(C)(C)[C@@H]5CC[C@]43C)[C@@H]2C1`: greater than 50 µM; for `CC1(C)CC[C@]2(C(=O)NCCCCCC(=O)NCC(=O)O)CC[C@]3(C)C(=CC[C@@H]4[C@@]5(C)CC[C@H](OC(=O)c6ccccc6)C(C)(C)[C@@H]5CC[C@]43C)[C@@H]2C1`: greater than 50 µM. The same measure for `CC(C)[C@H](NC(=O)CCCCCNC(=O)[C@]12CCC(C)(C)C[C@H]1C1=CC[C@@H]3[C@@]4(C)CC[C@H](OC(=O)CCC(=O)O)C(C)(C)[C@@H]4CC[C@@]3(C)[C@]1(C)CC2)C(=O)O`: 9.6 µM. As for `CCCCCCCCCCCC(=O)O[C@H]1CC[C@]2(C)[C@H]3CC=C4[C@@H]5CC(C)(C)CC[C@]5(C(=O)NCCCC(=O)O)CC[C@@]4(C)[C@]3(C)CC[C@H]2C1(C)C`, the figure is greater than 50 µM. With `CC(C)(CC(=O)O)CC(=O)O[C@H]1CC[C@]2(C)[C@H]3CC=C4[C@@H]5CC(C)(C)CC[C@]5(C(=O)NCCCCCC(=O)NCC(=O)O)CC[C@@]4(C)[C@]3(C)CC[C@H]2C1(C)C`, the IC50 came to 38.8 µM. As for `CC(=O)O[C@H]1CC[C@]2(C)[C@H]3CC=C4[C@@H]5CC(C)(C)CC[C@]5(C(=O)NCCCCCC(=O)O)CC[C@@]4(C)[C@]3(C)CC[C@H]2C1(C)C`, the figure is greater than 50 µM; as for `CC1(C)CC[C@]2(C(=O)NCCCC(=O)O)CC[C@]3(C)C(=CC[C@@H]4[C@@]5(C)CC[C@H](OC(=O)CCCC(=O)O)C(C)(C)[C@@H]5CC[C@]43C)[C@@H]2C1`, 20.4 µM.

The compound `CCC(=O)O[C@H]1CC[C@]2(C)[C@H]3CC=C4[C@@H]5CC(C)(C)CC[C@]5(C(=O)NCCCC(=O)NCC(=O)O)CC[C@@]4(C)[C@]3(C)CC[C@H]2C1(C)C` returned an IC50 greater than 50 µM. The same measure for `CC(C)(CC(=O)O)CC(=O)O[C@H]1CC[C@]2(C)[C@H]3CC=C4[C@@H]5CC(C)(C)CC[C@]5(C(=O)NCCCC(=O)NCC(=O)O)CC[C@@]4(C)[C@]3(C)CC[C@H]2C1(C)C`: greater than 50 µM; for `CC(=O)O[C@H]1CC[C@]2(C)[C@H]3CC=C4[C@@H]5CC(C)(C)CC[C@]5(C(=O)NCCCCCCCCCCC(=O)N[C@H](C(=O)O)C(C)C)CC[C@@]4(C)[C@]3(C)CC[C@H]2C1(C)C`: greater than 50 µM. As for `CC1(C)CC[C@]2(C(=O)NCCCC(=O)O)CC[C@]3(C)C(=CC[C@@H]4[C@@]5(C)CC[C@H](OC(=O)c6ccccc6)C(C)(C)[C@@H]5CC[C@]43C)[C@@H]2C1`, the figure is greater than 50 µM; as for `CC1(C)CC[C@]2(C(=O)NCCCCCCCCCCC(=O)O)CC[C@]3(C)C(=CC[C@@H]4[C@@]5(C)CC[C@H](OC(=O)c6ccccc6)C(C)(C)[C@@H]5CC[C@]43C)[C@@H]2C1`, greater than 50 µM.
